Measured values reported in US10100016B2, “Condensed ring derivative, and preparation method, intermediate, pharmaceutical composition and use thereof” (SHANGHAI YINGLI PHARMACEUTICAL CO., LTD., priority 2015, dated 2018).

Biological target: hURAT1 (Homo sapiens (Human), UniProt Q96S37)
Assay: 14C-uric acid transport inhibition in transfected HEK293/hURAT1 cells
Format: cell-based
Settings: 14C-uric acid uptake, 10 mins incubation, read-out: IC50 value against hURAT1
Description: Human embryonic kidney cells (HEK293) was incubated in DMEM tissue culture medium, at 37° C., under 5% CO2 and 95% air atmosphere. […] Transfected HEK293/hURAT1 cells were used to the test for ^14C-uric acid transport activity.
The uric acid [8-14C] […] The incubating solution was removed after 10 mins incubation, followed by adding 100 μL cold washing buffer, after washing with this buffer for 3 times, the buffer was completely removed from the well.

hURAT1, sequence (Q96S37 whole entry): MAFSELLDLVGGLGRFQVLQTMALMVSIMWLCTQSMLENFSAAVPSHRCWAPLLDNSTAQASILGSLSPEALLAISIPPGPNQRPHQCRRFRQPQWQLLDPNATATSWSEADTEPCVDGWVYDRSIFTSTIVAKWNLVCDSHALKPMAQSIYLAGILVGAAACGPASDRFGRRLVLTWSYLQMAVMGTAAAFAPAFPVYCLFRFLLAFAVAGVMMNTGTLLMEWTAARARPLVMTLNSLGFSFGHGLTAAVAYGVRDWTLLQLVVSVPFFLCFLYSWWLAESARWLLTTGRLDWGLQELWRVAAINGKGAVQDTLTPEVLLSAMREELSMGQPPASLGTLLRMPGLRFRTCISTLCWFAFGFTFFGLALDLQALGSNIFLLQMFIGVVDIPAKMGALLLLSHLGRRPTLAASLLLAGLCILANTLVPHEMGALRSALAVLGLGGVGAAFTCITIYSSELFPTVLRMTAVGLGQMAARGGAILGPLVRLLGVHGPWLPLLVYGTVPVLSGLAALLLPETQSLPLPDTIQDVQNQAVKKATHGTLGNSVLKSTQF

SMILES	IC50
CC(CC(=O)O)c1cc2c(-c3ccc(C#N)c4ccccc34)cncc2s1 (racemic) [Compound 42, 3-[4-(4-Cyanonaphthalen-1-yl)thieno[2,3-c]pyridin-2-yl] butyric Acid]	0.024 µM
CC(CC(=O)O)c1cc2cncc(-c3ccc(C#N)c4ccccc34)c2s1 (racemic) [Compound 52, 3-[7-(4-Cyanonaphthalen-1-yl)thieno[3,2-c]pyridine-2-yl]-butyric Acid]	0.037 µM
N#Cc1ccc(-c2cncc3ccc(C(=O)O)cc23)cc1 [Compound 1, 4-(4-cyanophenyl)isoquinoline-6-carboxylic Acid]	2.53 µM
N#Cc1ccc(-c2cncc3ccc(CCC(=O)O)cc23)cc1 [Compound 2, 3-[4-(4-Cyanophenyl)isoquinolin-6-yl]propionic Acid]	0.161 µM
N#Cc1ccc(-c2cncc3ccc(CC(=O)O)cc23)c2ccccc12 [Compound 3, 2-[4-(4-Cyanonaphthalen-1-yl)isoquinolin-6-yl]acetic Acid]	0.327 µM
CC(C)(Sc1ccc2cncc(-c3ccc(C#N)cc3)c2c1)C(=O)O [Compound 4]	0.015 µM
CC(C)(Oc1ccc2cncc(-c3ccc(C#N)cc3)c2c1)C(=O)O [Compound 6, 2{[4-(4-Cyanophenyl)isoquinolin-6-yl]oxy}-2-methylpropionic Acid]	0.214 µM
CC(C)(Sc1ccc2cncc(-c3ccc(C#N)cc3F)c2c1)C(=O)O [Compound 8, 2{[4-(4-Cyano-2-fluorophenyl)isoquinolin-6-yl]thio}-2-methylpropionic Acid]	0.057 µM
CC(C)(Sc1cc(F)c2cncc(-c3ccc(C#N)c4ccccc34)c2c1)C(=O)O [Compound 9, 2{[4-(4-Cyanonaphthalen-1-yl)-8-fluoroisoquinolin-6-yl]thio}-2-methylpropionic Acid]	0.127 µM
CC(C)(Sc1ccc2cncc(-c3cccc4c(C#N)cccc34)c2c1)C(=O)O [Compound 10, 2{[4-(5-Cyanonaphthalen-1-yl)isoquinolin-6-yl]thio}-2-methylpropionic Acid]	0.019 µM
CC(C)(Sc1ccc2cncc(-c3ccc(C#N)c4c3OCCO4)c2c1)C(=O)O [Compound 11, 2-{[4-(8-Cyano-2,3-dihydro-1,4-benzodioxan-5-yl)isoquinolin-6-yl]thio}-2-methylpropionic Acid]	0.062 µM
CC(C)(Sc1ccc2cncc(-c3ccc(C#N)c4ccc(F)cc34)c2c1)C(=O)O [Compound 12, 2-{[4-(4-Cyano-7-fluoronaphthalen-1-yl)isoquinolin-6-yl]thio}-2-methyl propionic Acid]	0.071 µM
CC(CC(=O)O)c1ccc2cncc(-c3ccc(C#N)cc3)c2c1 (centres unmarked) [Compound 13, 3-[4-(4-Cyanophenyl)isoquinolin-6-yl]butyric Acid]	0.189 µM
N#Cc1ccc(-c2cncc3ccc(/C=C/C(=O)O)cc23)c2ccccc12 [Compound 14, (2E)-3-[4-(4-Cyanonaphthalen-1-yl)isoquinolin-6-yl]acrylic Acid]	0.385 µM
CC(CC(=O)O)c1ccc2cncc(-c3ccc(C#N)c4ccccc34)c2c1 (centres unmarked) [Compound 15, 3-[4-(4-Cyanonaphthalen-1-yl)isoquinolin-6-yl]butyric Acid]	0.024 µM
CC(Cc1ccc2cncc(-c3ccc(C#N)c4ccccc34)c2c1)C(=O)O (centres unmarked) [Compound 16, 3-[4-(4-Cyanonaphthalen-1-yl)isoquinolin-6-yl]-2-methyl propionic acid]	0.015 µM
CC(C)(Cc1ccc2cncc(-c3ccc(C#N)c4ccccc34)c2c1)C(=O)O [Compound 17, 3-[4-(4-Cyanonaphthalen-1-yl)isoquinolin-6-yl]-2,2-dimethyl propionic Acid]	0.012 µM
CC(Sc1ccc2cncc(-c3ccc(C#N)c4ccccc34)c2c1)C(=O)O (centres unmarked) [Compound 21, 2-{[4-(4-Cyanonaphthalen-1-yl)isoquinolin-6-yl]thio}propionic Acid]	0.1 µM
CC(C)(Sc1ccc2cncc(-c3ccc(C#N)c(Cl)c3)c2c1)C(=O)O [Compound 22, 2-{[4-(3-Chloro-4-cyanophenyl)isoquinolin-6-yl]thio}-2-methyl propionic Acid]	0.055 µM

SMILES	IC50
CC(C)(Sc1ccc2cncc(-c3ccc(C#N)cc3Cl)c2c1)C(=O)O [Compound 23, 2-{[4-(2-Chloro-4-cyanophenyl)isoquinolin-6-yl]thio}-2-methyl propionic Acid]	0.018 µM
N#Cc1ccc(-c2cncc3ccc(SC4(C(=O)O)CCC4)cc23)c2ccccc12 [Compound 24, 1-{[4-(4-cyanonaphthalen-1-yl)isoquinolin-6-yl]thio}cyclobutane-1-carboxylic Acid]	0.018 µM
Cc1nc(Cc2c(Cl)cccc2Cl)n2cc(CCC(=O)O)ccc12 [Compound 25, 3-{3-[(2,6-dichlorophenyl)methyl]-1-methylimidazole[1,5-a]pyridine-6-yl}propionic Acid]	0.289 µM
Cc1nn(Cc2c(Cl)cccc2Cl)c2cc(SC(C)(C)C(=O)O)ccc12 [Compound 26, 2-({1-[(2,6-dichlorophenyl)methyl]-3-methyl-1H-indazol-6-yl}thio)-2-methyl propionic Acid]	0.119 µM
CC(C)(Sc1ccc2nccn2c1-c1ccc(C#N)cc1)C(=O)O [Compound 27, 2-{[5-(4-Cyanophenyl)imidazo[1,2-a]pyridin-6-yl]thio}-2-methyl propionic Acid]	1.73 µM
N#Cc1ccc(-c2cncc3cc(C(=O)O)sc23)c2ccccc12 [Compound 29, 7-(4-Cyanonaphthalen-1-yl)thieno[3,2-c]pyridin-2-formic Acid]	2.86 µM
N#Cc1ccc(-c2cncc3cc(CCC(=O)O)sc23)c2ccccc12 [Compound 30, 3-[7-(4-Cyanonaphthalen-1-yl)thieno[3,2-c]pyridin-2-yl]propionic acid]	0.087 µM
N#Cc1ccc(-c2cncc3cc(CC(=O)O)sc23)c2ccccc12 [Compound 31, 2-[7-(4-Cyanonaphthalen-1-yl)thieno[3,2-c]pyridin-2-yl]acetic Acid]	3.42 µM
N#Cc1ccc(-c2cncc3cc(CC(=O)O)sc23)cc1 [Compound 32, 2-[7-(4-Cyanophenyl)thieno[3,2-c]pyridin-2-yl]acetic Acid]	5.41 µM
CC(C)(Cc1cc2cncc(-c3ccc(C#N)cc3)c2s1)C(=O)O [Compound 33, 3-[7-(4-Cyanophenyl)thieno[3,2-c]pyridin-2-yl]-2,2-dimethylpropionic Acid]	0.042 µM
CC(C)(Cc1cc2cncc(-c3ccc(C#N)c4ccccc34)c2s1)C(=O)O [Compound 34, 3-[7-(4-Cyanonaphthalen-1-yl)thieno[3,2-c]pyridin-2-yl]-2,2-dimethylpropionic Acid]	0.139 µM
CC(C)(Cc1cc2c(-c3ccc(C#N)c4ccccc34)cccc2s1)C(=O)O [Compound 38, 3-[4-(4-Cyanonaphthalen-1-yl)-1-benzothiophen-2-yl]-2,2-dimethyl propionic Acid]	0.209 µM
CC(C)(Cc1cc2c(Cc3c(Cl)cccc3Cl)cccc2s1)C(=O)O [Compound 40, 3-{4-[(2,6-Dichlorophenyl)methyl]-1-benzothiophen-2-yl]-2,2-dimethyl propionic Acid]	3.47 µM
CC(O)(CC(=O)O)c1cc2c(-c3ccc(C#N)c4ccccc34)cncc2s1 (centres unmarked) [Compound 41, 3-[4-(4-Cyanonaphthalen-1-yl)thieno[2,3-c]pyridin-2-yl]-3-hydroxyl butyric Acid]	0.934 µM
CC(C)(Cc1cc2c(-c3ccc(C#N)c4ccccc34)cncc2s1)C(=O)O [Compound 47, 3-[4-(4-Cyanonaphthalen-1-yl)thieno[2,3-c]pyridin-2-yl]-2,2-dimethyl propionic Acid]	0.018 µM
CC(C)(C(=O)O)c1ccc2cncc(-c3ccc(C#N)c4ccccc34)c2c1 [Compound 49, 2-[4-(4-Cyanonaphthalen-1-yl)isoquinolin-6-yl]-2-methyl propionic acid]	0.116 µM
CC(C)(Sc1ccc2cnnc(-c3ccc(C#N)c4ccccc34)c2c1)C(=O)O [Compound 50, 2-{[4-(4-Cyanonaphthalen-1-yl)phthalazin-6-yl]thio}-2-methyl propionic Acid]	0.971 µM
CC(C)(Cc1ccc2cncc(-c3ccc(C#N)cc3)c2c1)C(=O)O [Compound 51, 3-[4-(4-Cyanophenyl)isoquinolin-6-yl]-2,2-dimethyl propionic Acid]	0.019 µM
CC(C)(Sc1ccncc1-c1ccc(C#N)c2ccccc12)C(=O)O [Verinurad (RDEA3170), reference compound]	0.113 µM
